{
  "source": "patent US10689622B2",
  "about": "“Culture medium for proliferating stem cell, which contains sulfated compound” (AJINOMOTO CO., INC., priority 2012, dated 2020)",
  "key": {"bFGF": {"biological_target": "T1, bFGF (Homo sapiens, UniProt P09038)", "T1 construct": "purchased Lonza (via TAKARA BIO INC.) Ser. No. 00/190,632", "T1 sequence (P09038 143-288)": "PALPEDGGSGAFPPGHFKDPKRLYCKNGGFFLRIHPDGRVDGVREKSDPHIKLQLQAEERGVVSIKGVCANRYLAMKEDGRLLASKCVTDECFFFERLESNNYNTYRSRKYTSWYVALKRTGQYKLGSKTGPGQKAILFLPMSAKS", "assay": "Evaluation of bFGF stabilization in ReproFF2 medium (ELISA)", "type": "biochemical", "settings": "37° C. for 7 days", "experimental": "A commercially available measurement kit (human bFGF ELISA kit, ELH-bFGF-001, Ray Biotech) was used for quantification of bFGF in the medium. The measurement procedures followed the protocol attached to the kit. The bFGF concentration of the serum-free medium was calculated from the analytical curve (conversion formula) drawn from the absorbance of an analytical curve standard solution. The evaluation criteria of Tables 5-8 are as follows:\nA test compound was dissolved in phosphate buffered saline, and diluted 10-fold with a serum-free medium to adjust the concentration shown in Table 4 (test sample). The test sample was left standing in a tightly sealed Falcon tube at 37° C. for 7 days, and the bFGF concentration was quantified by ELISA measurement. A phosphate buffered saline without a test compound was diluted 10-fold with Essential 8 medium or ReproFF2 medium, and left standing at 37° C. or 4° C. for 7 days, and used as a control.\nA commercially available measurement kit (human bFGF ELISA kit, ELH-bFGF-001, Ray Biotech) was used for quantification of bFGF in the medium. The measurement procedures followed the protocol attached to the kit. The bFGF concentration of the serum-free medium was calculated from the analytical curve (conversion formula) drawn from the absorbance of an analytical curve standard solution. The evaluation criteria of Table 13 are as follows:\nA test compound was dissolved in phosphate buffered saline, and diluted 10-fold with a serum-free medium to adjust the concentration shown in Table 12 (test sample). The test sample was left standing in a tightly sealed Falcon tube at 37° C. for 7 days, and the bFGF concentration was quantified by ELISA measurement. A phosphate buffered saline without a test compound was diluted 10-fold with Essential 8 medium or ReproFF2 medium, and left standing at 37° C. or 4° C. for 7 days, and used as a control."}, "iPS cell 201B7 strain": {"system": "iPS cell 201B7 strain", "assay": "iPS cell proliferation system (cell number)", "type": "cell-based, human", "settings": "matrigel, Essential-8 medium", "experimental": "The cell proliferation effect of various test compounds was evaluated using artificial pluripotent stem cell (iPS cell). 201B7 strain purchased from iPS Academia Japan, Inc. was grown in a culture container coated with a basal lamina matrix (matrigel manufactured by Nippon Becton Dickinson Company, Ltd., or a fragment containing an active domain of laminin 511 purchased from OSAKA UNIVERSITY) (Becton, Dickinson and Company, Falcon culture petri dish or Falcon culture plate), contained in a feeder-free medium for human ES/iPS cell (ReproCELL Inc, ReproFF2).\nIn this medium were suspended iPS cells in colony state, and a 2.5- to 3.5-fold diluted amount of the original culture was plated on a 6-well culture plate coated with a basal lamina matrix (Nippon Becton Dickinson Company, Ltd., Falcon culture plate). […] After culturing for 6 to 12 days, the medium was removed, the cells were detached from the culture plate by a trypsin-EDTA (Sigma-Aldrich Ltd.) or TrypLE Select (Invitrogen) treatment and the cell number was measured. The cell number was measured by the method described in “Kaitei Saibou baiyou Nyuumon Note, page 77-83, 2010, YODOSHA CO., LTD.” which is incorporated herein by reference in its entirety.\nWhen the cells were seeded in a dissociation state of the cells (single cell state), a test compound solution after filter sterilization was added to a medium containing Y-27632 (Nacalai Tesque) to a given concentration, and dispensed to a 6 well culture plate. Thereto were plated iPS cells suspended in a medium containing Y-27632 at 100,000 cells/well, and cultured for 6 to 8 days. On the next day of seeding, the medium was exchanged to a medium (without Y-27632) added with the test compound alone. When medium exchange was necessary, the medium was exchanged every 2 or 3 days. […] After culturing for 6 to 8 days, the cell number was measured by a method similar to that mentioned above.\nWhen the evaluation was performed in Essential 8 medium (Invitrogen), which is a different feeder-free medium for iPS cell, iPS cells cultured in a medium obtained by adding human serum albumin (Sigma-Aldrich Co. LLC) to Essential 8 medium were used."}},
  "data": [
    {"compound": "O=S(=O)([O-])OC[C@H]1O[C@@](COS(=O)(=O)[O-])(O[C@H]2O[C@H](COS(=O)(=O)[O-])[C@@H](OS(=O)(=O)[O-])[C@H](OS(=O)(=O)[O-])[C@H]2OS(=O)(=O)[O-])[C@@H](OS(=O)(=O)[O-])[C@@H]1OS(=O)(=O)[O-].[K+].[K+].[K+].[K+].[K+].[K+].[K+].[K+]", "note": "[sucrose 8SO3K]", "values": [
      {"measurement": "concentration showing a suppressive effect on a decrease in the bFGF concentration of the medium", "setting": "bFGF", "result": "not less than 250 pg/ml"},
      {"measurement": "bFGF concentration relative to that of 4° C. control (ELISA)", "setting": "bFGF; test compound 250 pg/ml", "result": "− (bFGF concentration was not less than 10% and less than 30% relative to that of 4 °C control)"},
      {"measurement": "bFGF concentration relative to that of 4° C. control (ELISA)", "setting": "bFGF; test compound 25 ng/ml", "result": "+++ (bFGF concentration was not less than 70% relative to that of 4 °C control)"},
      {"measurement": "bFGF concentration relative to that of 4° C. control (ELISA)", "setting": "bFGF; test compound 250 ng/ml", "result": "+++ (bFGF concentration was not less than 70% relative to that of 4 °C control)"},
      {"measurement": "bFGF concentration relative to that of 4° C. control (ELISA)", "setting": "bFGF; test compound 25 μg/ml", "result": "++ (bFGF concentration was not less than 50% and less than 70% relative to that of 4 °C control)"},
      {"measurement": "bFGF concentration relative to that of 4° C. control (ELISA)", "setting": "bFGF; test compound 250 μg/ml", "result": "+++ (bFGF concentration was not less than 70% relative to that of 4 °C control)"},
      {"measurement": "number of cells relative to control", "setting": "iPS cell 201B7 strain; test compound 25 ng/ml", "result": "◯ (not less than 100%: ◯)"},
      {"measurement": "number of cells relative to control", "setting": "iPS cell 201B7 strain; test compound 250 ng/ml", "result": "◯ (not less than 100%: ◯)"}
    ]}
  ]
}
